According to patent US20250257086A1, “EGFR DEGRADATION AGENT” (Beijing Tide Pharmaceutical Co., Ltd., priority 2022, published 2025):

molecular target: Ba/F3 (EGFR^L858R/T790M/C797S) cells (Homo sapiens, UniProt P00533, T790M/C797S/L858R, cells depend on it); test: Antiproliferative activity on Ba/F3 (EGFR L858R/T790M/C797S) cells (CTG); format: cell-based; conditions: 72h incubation, CTG luminescence, read-out: IC50 (nM), antiproliferative activity
Description: 30 nL of the compound dilution was added to a 384-well plate by Echo (Labcyte, Echo550).
The percent inhibition rate (% inhibition) was calculated by the following formula
[formula] • LUMcmpd: Luminescence value of assay compound. • LUMpositive: Average LUM value of positive drug with a concentration of 10 μM. • LUMvehicle: Average LUM value of negative control group without drug treatment.
The nonlinear regression curve (dose response-variable slope) between the value of inhibition rate (%) and the logarithm of compound concentration was fitted with graphpad prism 8.0, the effect dose curve of compound was drawn, and the IC50 value was calculated.
Y=Bottom+(Top−Bottom)/(1+10^((Log IC50−X)*HillSlope)) • X-axis: logarithm of compound concentration; Y axis: inhibition rate (% inhibition).

Sequence of Ba/F3 (EGFR^L858R/T790M/C797S) cells (P00533 whole entry T790M/C797S/L858R): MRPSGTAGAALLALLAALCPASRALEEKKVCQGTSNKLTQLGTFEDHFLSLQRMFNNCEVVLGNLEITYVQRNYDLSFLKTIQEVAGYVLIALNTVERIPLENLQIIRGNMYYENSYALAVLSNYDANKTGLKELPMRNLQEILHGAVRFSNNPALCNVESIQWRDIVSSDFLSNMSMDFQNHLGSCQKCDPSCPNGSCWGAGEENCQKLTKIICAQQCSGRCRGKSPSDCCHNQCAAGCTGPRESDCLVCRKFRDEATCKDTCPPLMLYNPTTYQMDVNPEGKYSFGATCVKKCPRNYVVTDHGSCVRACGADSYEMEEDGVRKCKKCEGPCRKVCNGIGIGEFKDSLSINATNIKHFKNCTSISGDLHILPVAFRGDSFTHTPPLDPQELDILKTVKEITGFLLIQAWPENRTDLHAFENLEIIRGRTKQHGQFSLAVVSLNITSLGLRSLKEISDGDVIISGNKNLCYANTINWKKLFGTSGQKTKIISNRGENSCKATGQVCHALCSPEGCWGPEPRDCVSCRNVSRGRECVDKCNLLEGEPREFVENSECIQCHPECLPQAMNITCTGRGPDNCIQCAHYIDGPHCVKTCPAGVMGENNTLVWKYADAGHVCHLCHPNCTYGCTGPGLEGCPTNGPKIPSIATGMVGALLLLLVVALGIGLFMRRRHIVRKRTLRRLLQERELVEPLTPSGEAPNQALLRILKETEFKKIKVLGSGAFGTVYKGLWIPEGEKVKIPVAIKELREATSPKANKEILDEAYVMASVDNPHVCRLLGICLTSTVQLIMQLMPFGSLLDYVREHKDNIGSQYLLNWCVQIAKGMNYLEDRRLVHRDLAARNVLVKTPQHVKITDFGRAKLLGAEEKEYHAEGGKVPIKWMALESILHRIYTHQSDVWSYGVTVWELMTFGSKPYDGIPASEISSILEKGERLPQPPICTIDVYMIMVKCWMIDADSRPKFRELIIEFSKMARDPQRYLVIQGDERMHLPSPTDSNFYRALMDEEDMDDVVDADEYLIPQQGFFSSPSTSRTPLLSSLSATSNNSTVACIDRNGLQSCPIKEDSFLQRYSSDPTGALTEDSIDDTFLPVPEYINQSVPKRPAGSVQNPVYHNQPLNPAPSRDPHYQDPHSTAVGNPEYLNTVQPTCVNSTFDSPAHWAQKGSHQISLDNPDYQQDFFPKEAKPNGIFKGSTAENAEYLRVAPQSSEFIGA

| SMILES | GI50 [nM] |
| --- | --- |
| C=C(F)C(=O)Nc1cc(Nc2ncc(Cl)c(Nc3ccc4nccnc4c3P(C)(C)=O)n2)c(OC)cc1N1CCC(N2CCN(CCCC#Cc3cccc4c3CN(C3CCC(=O)NC3=O)C4=O)CC2)CC1 (stereo not drawn) [Compound D671, N-(5-((5-chloro-4-((5-(dimethylphosphoryl)quinoxalin-6-yl)amino)pyrimidin-2-yl)amino)-2-(4-(4-(5-(2-(2,6-dioxopiperidin-3-yl)-1-oxoisoindolin-4-yl)pent-4-yn-1-yl)piperazin-1-yl)piperidin-1-yl)-4-methoxyphenyl)-2-fluoroacrylamide] | 14.5 |
| C=CC(=O)Nc1cc(Nc2ncc(Br)c(Nc3ccccc3P(C)(C)=O)n2)c(OC)cc1N1CCC(N2CCN(C)CC2)CC1 [Comparative compound L495, reference compound] | 3740 |
| C=C(F)C(=O)Nc1cc(Nc2ncc(Cl)c(Nc3ccc4c(c3P(C)(C)=O)OCCO4)n2)c(OC)cc1N1CCC(N2CCN(CCCC#Cc3cccc4c3CN(C3CCC(=O)NC3=O)C4=O)CC2)CC1 (stereo not drawn) [Compound D682] | 14.6 |
| COc1cc(N2CCC(N3CCN(CCCC#Cc4cccc5c4CN(C4CCC(=O)NC4=O)C5=O)CC3)CC2)c(NC(=O)/C=C/c2c[nH]cn2)cc1Nc1ncc(Cl)c(Nc2ccccc2P(C)(C)=O)n1 (stereo not drawn) [Compound D581, N-(5-((5-chloro-4-((2-(dimethylphosphoryl)phenyl)amino)pyrimidin-2-yl)amino)-2-(4-(4-(5-(2-(2,6-dioxopiperidin-3-yl)-1-oxoisoindolin-4-yl)pent-4-yn-1-yl)piperazin-1-yl)piperidin-1-yl)-4-methoxyphenyl)-3-(1H-imidazol-4-yl)acrylamide] | 2600 |
| CC#CC(=O)Nc1cc(Nc2ncc(Cl)c(Nc3ccccc3P(C)(C)=O)n2)c(OC)cc1N1CCC(N2CCN(CCCCC#Cc3ccc4c(c3)CN(C3CCC(=O)NC3=O)C4=O)CC2)CC1 (stereo not drawn) [Compound D602, N-(5-((5-chloro-4-((2-(dimethylphosphoryl)phenyl)amino)pyrimidin-2-yl)amino)-2-(4-(4-(6-(2-(2,6-dioxopiperidin-3-yl)-1-oxoisoindolin-5-yl)hex-5-yn-1-yl)piperazin-1-yl)piperidin-1-yl)-4-methoxyphenyl)but-2-ynamide] | 57.3 |
| C=C(F)C(=O)Nc1cc(Nc2ncc(Br)c(Nc3ccccc3P(C)(C)=O)n2)c(OCC(F)(F)F)cc1N1CCC(N2CCN(CCCC#Cc3cccc4c3CN(C3CCC(=O)NC3=O)C4=O)CC2)CC1 (stereo not drawn) [Compound D846, N-(5-((5-bromo-4-((2-(dimethylphosphoryl)phenyl)amino)pyrimidin-2-yl)amino)-2-(4-(4-(5-(2-(2,6-dioxopiperidin-3-yl)-1-oxoisoindolin-4-yl)pent-4-yn-1-yl)piperazin-1-yl)piperidin-1-yl)-4-(2,2,2-trifluoroethoxy)phenyl)-2-fluoroacrylamide] | 11.9 |
| COc1cc(N2CCC(N3CCN(CCCCC#Cc4ccc5c(c4)CN(C4CCC(=O)NC4=O)C5=O)CC3)CC2)c(NC(=O)/C=C/C(F)(F)F)cc1Nc1ncc(Cl)c(Nc2ccccc2P(C)(C)=O)n1 (stereo not drawn) [Compound D623, N-(5-((5-chloro-4-((2-(dimethylphosphoryl)phenyl)amino)pyrimidin-2-yl)amino)-2-(4-(4-(6-(2-(2,6-dioxopiperidin-3-yl)-1-oxoisoindolin-5-yl)hex-5-yn-1-yl)piperazin-1-yl)piperidin-1-yl)-4-methoxyphenyl)-4,4,4-trifluorobut-2-enamide] | 94.3 |
| COc1cc(N2CCC(N3CCN(CCCC#Cc4cccc5c4CN(C4CCC(=O)NC4=O)C5=O)CC3)CC2)c(NC(=O)C#CCO)cc1Nc1ncc(Cl)c(Nc2ccccc2P(C)(C)=O)n1 (stereo not drawn) [Compound D628, N-(5-((5-chloro-4-((2-(dimethylphosphoryl)phenyl)amino)pyrimidin-2-yl)amino)-2-(4-(4-(5-(2-(2,6-dioxopiperidin-3-yl)-1-oxoisoindolin-4-yl)pent-4-yn-1-yl)piperazin-1-yl)piperidin-1-yl)-4-methoxyphenyl)-4-hydroxybut-2-ynamide] | 325 |
| COc1cc(N2CCC(N3CCN(CCCC#Cc4cccc5c4CN(C4CCC(=O)NC4=O)C5=O)CC3)CC2)c(C)cc1Nc1ncc(Br)c(Nc2ccc3nccnc3c2NS(C)(=O)=O)n1 (stereo not drawn) [Compound D741, N-(6-((5-bromo-2-((4-(4-(4-(5-(2-(2,6-dioxopiperidin-3-yl)-1-oxoisoindolin-4-yl)pent-4-yn-1-yl)piperazin-1-yl)piperidin-1-yl)-2-methoxy-5-methylphenyl)amino)pyrimidin-4-yl)amino)quinoxalin-5-yl)methanesulfonamide] | 10.2 |
| CC#CC(=O)Nc1cc(Nc2ncc(Br)c(Nc3ccccc3P(C)(C)=O)n2)c(OC)cc1N1CCC(N2CCN(CCCC#Cc3cccc4c3CN(C3CCC(=O)NC3=O)C4=O)CC2)CC1 (stereo not drawn) [Compound D604, N-(5-((5-bromo-4-((2-(dimethylphosphoryl)phenyl)amino)pyrimidin-2-yl)amino)-2-(4-(4-(5-(2-(2,6-dioxopiperidin-3-yl)-1-oxoisoindolin-4-yl)pent-4-yn-1-yl)piperazin-1-yl)piperidin-1-yl)-4-methoxyphenyl)but-2-ynamide] | 44.4 |
| C=C(F)C(=O)Nc1cc(Nc2ncc(C(F)(F)F)c(Nc3ccccc3P(C)(C)=O)n2)c(OCC(F)(F)F)cc1N1CCC(N2CCN(CCCC#Cc3cccc4c3CN(C3CCC(=O)NC3=O)C4=O)CC2)CC1 (stereo not drawn) [Compound D870, N-(5-((4-((2-(dimethylphosphoryl)phenyl)amino)-5-(trifluoromethyl)pyrimidin-2-yl)amino)-2-(4-(4-(5-(2-(2,6-dioxopiperidin-3-yl)-1-oxoisoindolin-4-yl)pent-4-yn-1-yl)piperazin-1-yl)piperidin-1-yl)-4-(2,2,2-trifluoroethoxy)phenyl)-2-fluoroacrylamide] | 8.87 |
| C=CC(=O)Nc1cc(Nc2ncc(Cl)c(Nc3ccc4nccnc4c3P(C)(C)=O)n2)c(OC)cc1N1CCC(N2CCN(CCCC#Cc3cccc4c3CN(C3CCC(=O)NC3=O)C4=O)CC2)CC1 (stereo not drawn) [Compound D670, N-(5-((5-chloro-4-((5-(dimethylphosphoryl)quinoxalin-6-yl)amino)pyrimidin-2-yl)amino)-2-(4-(4-(5-(2-(2,6-dioxopiperidin-3-yl)-1-oxoisoindolin-4-yl)pent-4-yn-1-yl)piperazin-1-yl)piperidin-1-yl)-4-methoxyphenyl)acrylamide] | 25.7 |
| COc1cc(N2CCC(N3CCN(CCCCCC#Cc4cccc5c4CN(C4CCC(=O)NC4=O)C5=O)CC3)CC2)c(NC(=O)/C=C/CN(C)C)cc1Nc1ncc(Cl)c(Nc2ccccc2P(C)(C)=O)n1 (stereo not drawn) [Compound D557, (E)-N-(5-((5-chloro-4-((2-(dimethylphosphoryl)phenyl)amino)pyrimidin-2-yl)amino)-2-(4-(4-(7-(2-(2,6-dioxopiperidin-3-yl)-1-oxoisoindolin-4-yl)hept-6-yn-1-yl)piperazin-1-yl)piperidin-1-yl)-4-dimethoxyphenyl)-4-(dimethylamino)but-2-enamide] | 383 |
| CC#CC(=O)Nc1cc(Nc2ncc(Cl)c(Nc3ccccc3P(C)(C)=O)n2)c(OC)cc1N1CCC(N2CCN(CCCCCC#Cc3cccc4c3CN(C3CCC(=O)NC3=O)C4=O)CC2)CC1 (stereo not drawn) [Compound D560, N-(5-((5-chloro-4-((2-(dimethylphosphoryl)phenyl)amino)pyrimidin-2-yl)amino)-2-(4-(4-(7-(2-(2,6-dioxopiperidin-3-yl)-1-oxoisoindolin-4-yl)hept-6-yn-1-yl)piperazin-1-yl)piperidin-1-yl)-4-methoxyphenyl)but-2-ynamide] | 112 |
| C=CC(=O)Nc1cc(Nc2ncc(Br)c(Nc3ccccc3P(C)(C)=O)n2)ccc1N1CCC(N2CCN(CCCCC#Cc3cccc4c3CN(C3CCC(=O)NC3=O)C4=O)CC2)CC1 (stereo not drawn) [Compound D550, N-(5-((5-bromo-4-((2-(dimethylphosphoryl)phenyl)amino)pyrimidin-2-yl)amino)-2-(4-(4-(6-(2-(2,6-dioxopiperidin-3-yl)-1-oxoisoindolin-4-yl)hex-5-yn-1-yl)piperazin-1-yl)piperidin-1-yl)phenyl)acrylamide] | 14.4 |
| COc1cc(N2CCC(N3CCN(CCCC#Cc4cccc5c4CN(C4CCC(=O)NC4=O)C5=O)CC3)CC2)c(NC(=O)/C=C/CN2CCCCC2)cc1Nc1ncc(Cl)c(Nc2ccccc2P(C)(C)=O)n1 (stereo not drawn) [Compound D584, (E)-N-(5-((5-chloro-4-((2-(dimethylphosphoryl)phenyl)amino)pyrimidin-2-yl)amino)-2-(4-(4-(5-(2-(2,6-dioxopiperidin-3-yl)-1-oxoisoindolin-4-yl)pent-4-yn-1-yl)piperazin-1-yl)piperidin-1-yl)-4-methoxyphenyl)-4-(piperidin-1-yl)but-2-enamide] | 216 |
| CC#CC(=O)Nc1cc(Nc2ncc(Cl)c(Nc3ccccc3P(C)(C)=O)n2)c(OC)cc1N1CCC(N2CCN(CCCCC#Cc3cccc4c3CN(C3CCC(=O)NC3=O)C4=O)CC2)CC1 (stereo not drawn) [Compound D559, N-(5-((5-chloro-4-((2-(dimethylphosphoryl)phenyl)amino)pyrimidin-2-yl)amino)-2-(4-(4-(6-(2-(2,6-dioxopiperidin-3-yl)-1-oxoisoindolin-4-yl)hex-5-yn-1-yl)piperazin-1-yl)piperidin-1-yl)-4-methoxyphenyl)but-2-ynamide] | 50.4 |
| C=C(F)C(=O)Nc1cc(Nc2ncc(Cl)c(Nc3ccccc3P(C)(C)=O)n2)c(OC)cc1N1CCC(N2CCN(CCCCC#Cc3cccc4c3CN(C3CCC(=O)NC3=O)C4=O)CC2)CC1 (stereo not drawn) [Compound D553, N-(5-((5-chloro-4-((2-(dimethylphosphoryl)phenyl)amino)pyrimidin-2-yl)amino)-2-(4-(4-(6-(2-(2,6-dioxopiperidin-3-yl)-1-oxoisoindolin-4-yl)hex-5-yn-1-yl)piperazin-1-yl)piperidin-1-yl)-4-methoxyphenyl)-2-fluoroacrylamide] | 49.5 |
